# Experiments:
# [1] = system: PC-3 human prostate cancer cells; experiment: Cell viability MTT assay, PC-3; format: cell-based; conditions: for GI50: 72 h, MTT assay
# [2] = system: NIH3T3 murine fibroblast cells; experiment: Cell viability MTT assay, NIH3T3; format: cell-based; conditions: for GI50: 72 h, MTT assay; for Selectivity index NIH3T3: SI = GI50 (non-cancer cell line NIH3T3)/GI50 (cancer cell line PC-3)
# Description: (§1) HepG-2 human liver cancer cells were cultured in EMEM containing 10% of FBS, 1% of nonessential amino acids, 1 mM of Na-pyruvate, 1% of PenStrep antibiotics and 600 μg/mL of Geneticin. A549 human lung carcinoma cells, T24 human bladder carcinoma cells, MCF-7 human breast adenocarcinoma cells, U-2OS human osteosarcoma and NIH3T3 murine fibroblast cells were cultured in DMEM medium containing 10% fetal bovine serum and 1% antibiotics at 37° C. in 5% CO2 humidified incubators. MC3T3 mouse osteoblast cells were cultured in MEM medium containing 10% fetal bovine serum and 1% antibiotics at 37° C. in 5% CO2 humidified incubators. RWPE-1 human prostate normal cells were cultured in K-SFM medium containing 0.05 mg/ml bovine pituitary extract (BPE) and 5 ng/ml epidermal growth factor (EGF) at 37° C. in 5% CO2 humidified incubators. The MTT reagent (3-(4,5-dimethylthiazol-2-yl)-2,5-diphenyltetrazolium bromide) was used to determine cell death as originally described by Mosmaneland modified by Cuvillier et al.^[6] Briefly, cells were seeded 5,000 to 10,000 cells/well in 24-well plates depending on the cell type and allowed to attach overnight. All of the complexes were dissolved in DMSO. The concentration of the complexes was calculated according to the elemental composition of the complexes determined by the elemental analyses. Media in the presence of the tested complexes were added and serially diluted to various concentrations (from 5 μM to 0.01 μM). Next to these concentrations, for DHA 50, 20 and 10 μM and for the cationic bisNHC gold(I) complex 3 0.001 μM have been used. […] After 72 h of treatment, cells were incubated at 37° C. and 5% CO2 with 25 μL MTT solution (5 mg/mL; Sigma-Aldrich) in 24-well plates for approximately 3 to 4 h. After solubilization with 500 μL of lysis buffer (DMSO), formazan was quantified by spectrophotometry with a microplate reader at 570 nm absorbance. […] All the results were calculated from data obtained in three independent experiments.
# [3] = system: RWPE-1 human prostate normal cells; experiment: Cell viability MTT assay, RWPE-1; format: cell-based; conditions: for GI50: 72 h, MTT assay; for Selectivity index RWPE-1: SI = GI50 (RWPE-1)/GI50 (PC-3)
# Description: as §1
# [4] = system: MC3T3 mouse osteoblast cells; experiment: Cell viability MTT assay, MC3T3; format: cell-based
# Description: (§2) PC-3 human prostate cancer cells, and LAMA chronic myeloid leukemia were cultured in RPMI 1640 containing 10% fetal bovine serum and 1% antibiotics (100 U/mL penicillin and 100 μg/mL streotimycin) at 37° C. in 5% CO2 humidified incubators. HL60 […] were cultured in RPMI 1640 containing 15% fetal bovine serum and 1% antibiotics (100 U/mL penicillin and 100 μg/mL streotimycin) at 37° C. in 5% CO2 humidified incubators. HepG-2 human liver cancer cells were cultured in EMEM containing 10% of FBS, 1% of nonessential amino acids, 1 mM of Na-pyruvate, 1% of PenStrep antibiotics and 600 μg/mL of Geneticin. A549 human lung carcinoma cells, T24 human bladder carcinoma cells, MCF-7 human breast adenocarcinoma cells, U-2OS human osteosarcoma and NIH3T3 murine fibroblast cells were cultured in DMEM medium containing 10% fetal bovine serum and 1% antibiotics at 37° C. in 5% CO2 humidified incubators. MC3T3 mouse osteoblast cells were cultured in MEM medium containing 10% fetal bovine serum and 1% antibiotics at 37° C. in 5% CO2 humidified incubators. RWPE-1 human prostate normal cells were cultured in K-SFM medium containing 0.05 mg/ml bovine pituitary extract (BPE) and 5 ng/ml epidermal growth factor (EGF) at 37° C. in 5% CO2 humidified incubators. The MTT reagent (3-(4,5-dimethylthiazol-2-yl)-2,5-diphenyltetrazolium bromide) was used to determine cell death as originally described by Mosmaneland modified by Cuvillier et al.^[6] Briefly, cells were seeded 5,000 to 10,000 cells/well in 24-well plates depending on the cell type and allowed to attach overnight. All of the complexes were dissolved in DMSO. The concentration of the complexes was calculated according to the elemental composition of the complexes determined by the elemental analyses. Media in the presence of the tested complexes were added and serially diluted to various concentrations (from 5 μM to 0.01 μM). Next to these concentrations, for DHA 50, 20 and 10 μM and for the cationic bisNHC gold(I) complex 3 0.001 μM have been used. […] After 72 h of treatment, cells were incubated at 37° C. and 5% CO2 with 25 μL MTT solution (5 mg/mL; Sigma-Aldrich) in 24-well plates for approximately 3 to 4 h. After solubilization with 500 μL of lysis buffer (DMSO), formazan was quantified by spectrophotometry with a microplate reader at 570 nm absorbance. The GI50 values corresponding to the concentration that caused 50% inhibition of cell proliferation were calculated from dose-response curves obtained by nonlinear regression analysis (Prism 8, Graphpad Software). All the results were calculated from data obtained in three independent experiments.
# [5] = system: A549 human lung carcinoma cells; experiment: Cell viability MTT assay, A549; format: cell-based
# Description: as §2
# [6] = system: MCF-7 human breast adenocarcinoma cells; experiment: Cell viability MTT assay, MCF-7; format: cell-based
# Description: as §2
# [7] = system: T24 human bladder carcinoma cells; experiment: Cell viability MTT assay, T24; format: cell-based
# Description: as §2
# U-2OS human osteosarcoma = experiment: Cell viability MTT assay, U-2OS; format: cell-based
# Description: as §2
# [8] = system: HepG-2 human liver cancer cells; experiment: Cell viability MTT assay, HepG-2; format: cell-based; conditions: 72 h
# Description: (§3) PC-3 human prostate cancer cells, and LAMA chronic myeloid leukemia were cultured in RPMI 1640 containing 10% fetal bovine serum and 1% antibiotics (100 U/mL penicillin and 100 μg/mL streotimycin) at 37° C. in 5% CO2 humidified incubators. HL60 […] were cultured in RPMI 1640 containing 15% fetal bovine serum and 1% antibiotics (100 U/mL penicillin and 100 μg/mL streotimycin) at 37° C. in 5% CO2 humidified incubators. HepG-2 human liver cancer cells were cultured in EMEM containing 10% of FBS, 1% of nonessential amino acids, 1 mM of Na-pyruvate, 1% of PenStrep antibiotics and 600 μg/mL of Geneticin. A549 human lung carcinoma cells, T24 human bladder carcinoma cells, MCF-7 human breast adenocarcinoma cells, U-2OS human osteosarcoma and NIH3T3 murine fibroblast cells were cultured in DMEM medium containing 10% fetal bovine serum and 1% antibiotics at 37° C. in 5% CO2 humidified incubators. MC3T3 mouse osteoblast cells were cultured in MEM medium containing 10% fetal bovine serum and 1% antibiotics at 37° C. in 5% CO2 humidified incubators. RWPE-1 human prostate normal cells were cultured in K-SFM medium containing 0.05 mg/ml bovine pituitary extract (BPE) and 5 ng/ml epidermal growth factor (EGF) at 37° C. in 5% CO2 humidified incubators. The MTT reagent (3-(4,5-dimethylthiazol-2-yl)-2,5-diphenyltetrazolium bromide) was used to determine cell death as originally described by Mosmaneland modified by Cuvillier et al.^[6] Briefly, cells were seeded 5,000 to 10,000 cells/well in 24-well plates depending on the cell type and allowed to attach overnight. All of the complexes were dissolved in DMSO. The concentration of the complexes was calculated according to the elemental composition of the complexes determined by the elemental analyses. […] After solubilization with 500 μL of lysis buffer (DMSO), formazan was quantified by spectrophotometry with a microplate reader at 570 nm absorbance. […] All the results were calculated from data obtained in three independent experiments.
# [9] = system: LAMA chronic myeloid leukemia; experiment: Cell viability MTT assay, LAMA; format: cell-based, human
# Description: as §2
# [10] = system: HL60 (acute myeloid leukemia); experiment: Cell viability MTT assay, HL60; format: cell-based
# Description: as §2
# [11] = system: Non tumoral cell models (MC3-T3, NIH3T3, RWPE1); experiment: MTT assay, mean over non tumoral cell models; format: cell-based; conditions: mean of MC3-T3, NIH3T3, RWPE1
# Description: as §3
# Tumor cell models = experiment: MTT assay, panel of tumor cell models; format: cell-based, human; conditions: mean of PC-3, A549, U2OS, T24, MCF-7, LAMA, HL60
# Description: as §3
# [12] = system: NF-κB transcription factor induced by TNFalpha; experiment: NF-kB transcriptional activity, NF-kB Reporter (Luc)-A549 stable cell line; format: cell-based, human; conditions: NF-kB Reporter A549 cells, 1 ng/ml TNFα, 7 hours; read-out: IC50, inhibition of NF-κB transcription factor induced by TNFalpha
# Description: The NF-kB Reporter (Luc)—A549 Stable Cell Line was used to quantify the inhibitory effects of the indicated doses of the molecules of the invention on transcriptional activity of NF-kB activated by 1 ng/ml TNFα (7 hours of treatment).
# Luminescence was read using a luminometer and readings were normalized to wells that only contain media to obtain the Relative Luminescence Units (RLUs).
# 9. NF-kB Transcriptional Activity
# Nrf2 = experiment: NRF2 transcriptional activity, ARE Reporter Hep G2 cell line; format: cell-based, human; conditions: ARE Reporter Hep G2 cells, 16 hours, any dose
# Description: The ARE Reporter Hep G2 cell line containing a firefly luciferase gene under the control of ARE stably integrated into Hep G2 cells was used to quantify NRF2 transcriptional activity after 16 hours of treatment with the indicated doses of the different complexes. The results are shown as fold induction of ARE luciferase reporter expression. Dashed line indicates a fold induction of 1 (values >1 mean activation and values <1 mean inhibition).
# ARE-reporter-HepG-2 cells were harvested from culture in Growth Medium 1K and they were seeded at a concentration of 40,000 cells/well into white clear-bottom 96-well microplate in 45 μL of Growth Medium 1K without Geneticin. Cells were allowed to attach overnight and then treated with different concentrations of complex 2a (from 0.01 μM to 20 μM), auranofin (from 0.01 μM to 20 μM) or DHA (from 0.01 μM to 3, 5, 10, 20 and 50 μM), and complex (from 0.01 μM to 20 μM). After incubation at 37° C. and 5% CO2 for 16 hours, ONE-Step luciferase assay reagent (100 μL) was added and rock at room temperature for over 15 minutes. Then the luminescence of each well was determined by CLARIOstar microplate reader to quantify induction of ARE. Three independent experiments were performed as biological triplicates. The results are in FIG. 4.
# [13] = ratio of IC50, tumoral versus non tumoral cells of same tissue
compound,measurement,setting,value
3′-methyl-1′-[10β-(20-propoxy)dihydroartemisin]1H-imidazol-3-ium bromide [Compound 1a],GI50,[1],> 20000 nM
same,GI50,[2],> 20000 nM
same,GI50,[3],> 20000 nM
3′-methyl-1′-[10β-(21-butoxy)dihydroartemisin]1H-imidazol-3-ium bromide [Compound 1b],GI50,[1],> 20000 nM
same,GI50,[2],> 20000 nM
same,GI50,[3],> 20000 nM
3′-methyl-1′-[10β-(22-pentoxy)dihydroartemisin]1H-imidazol-3-ium bromide [Compound 1c],GI50,[1],> 20000 nM
same,GI50,[2],> 20000 nM
same,GI50,[3],3740 nM
C[C@@H]1CCC2[C@@H](C)[C@@H](OCCCn3cc[n+](C)[c]3[Au-][c]3n(CCCO[C@H]4O[C@@H]5O[C@]6(C)CCC7[C@H](C)CCC([C@H]4C)[C@]75OO6)cc[n+]3C)O[C@@H]3O[C@]4(C)CCC1[C@@]23OO4.O=[N+]([O-])[O-] (some centres unmarked) [Compound 2a],GI50,[1],70 nM
same,IC50,"[1]; Table 3, tumor cell model",70 nM
same,GI50,[2],1130 nM
same,Selectivity index NIH3T3,[2],16.1
same,IC50,"[2]; Table 3, non tumoral cell model, read-out: IC50 NIH3T3 (fibroblasts)",1130 nM
same,GI50,"[4]; 72 h, MTT assay",1620 nM
same,Selectivity index MC3T3,[4]; SI = GI50 (MC3T3)/GI50 (PC-3),23.1
same,IC50,"[4]; Table 3, non tumoral cell model, read-out: IC50 MC3-T3 (osteoblasts)",1620 nM
same,Specificity Bone: MC3-T3 (normal immortalized)/U2OS (tumoral),[4]; [13],13.3
same,GI50,[3],480 nM
same,Selectivity index RWPE-1,[3],6.9
same,IC50,"[3]; Table 3, non tumoral cell model, read-out: IC50 RWPE1 (prostatic epithelial cells)",480 nM
same,Specificity Prostate: RWPE1 (normal immortalized)/PC-3 (tumoral),[3]; [13],6.9
same,"SI PC-3/RPWE-1 value, times higher than Auranofin",[3]; ratio of SI,69 times
same,"SI PC-3/RPWE-1 value, times higher than complex 3",[3]; ratio of SI,35 times
same,GI50,"[5]; 72 h, MTT assay",110 nM
same,IC50,"[5]; Table 3, tumor cell model",115 nM
same,GI50,"[6]; 72 h, MTT assay",90 nM
same,IC50,"[6]; Table 3, tumor cell model",89 nM
same,GI50,"[7]; 72 h, MTT assay",170 nM
same,IC50,"[7]; Table 3, tumor cell model",175 nM
same,GI50,"U-2OS human osteosarcoma; 72 h, MTT assay, read-out: GI50 U2OS",120 nM
same,IC50,"U-2OS human osteosarcoma; Table 3, tumor cell model, read-out: IC50 U2OS (bone tumor)",122 nM
same,GI50,[8],2430 nM
same,GI50,"[9]; 72 h, MTT assay",80 nM
same,IC50,"[9]; Table 3, tumor cell model",79 nM
same,GI50,"[10]; 72 h, MTT assay",22 nM
same,IC50,"[10]; Table 3, tumor cell model",22 nM
same,IC50,[11],1080 nM
same,IC50,Tumor cell models,96 nM
same,IC50,[12],~615 nM
C[C@@H]1CCC2[C@@H](C)[C@@H](OCCCCn3cc[n+](C)[c]3[Au-][c]3n(CCCCO[C@H]4O[C@@H]5O[C@]6(C)CCC7[C@H](C)CCC([C@H]4C)[C@]75OO6)cc[n+]3C)O[C@@H]3O[C@]4(C)CCC1[C@@]23OO4.[Cl-] (some centres unmarked) [Compound 2b],GI50,[1],42 nM
same,GI50,[2],700 nM
same,Selectivity index NIH3T3,[2],16.7
same,GI50,[3],110 nM
same,Selectivity index RWPE-1,[3],2.6
CN1C=CN(c2ccc3ccccc3n2)[CH]1[Au-][CH]1N(C)C=CN1c1ccc2ccccc2n1 (centres unmarked) [Compound 3],Effect on activity of Nrf2,Nrf2,activate
C[C@@H]1CC[C@H]2[C@@H](C)C(=O)O[C@@H]3O[C@@]4(C)CC[C@@H]1[C@]32OO4 [artemisinin],Effect on activity of Nrf2,Nrf2,activate
